Source: patent US11866430B2, “Naphthyridinone compounds useful as T cell activators” (priority 2018, dated 2024)
Read-outs that look alike come from different tables or passages of the source.

Legend:
human DGKα [1] = molecular target: T1, human DGKα (Homo sapiens (Human), UniProt P23743); assay: DGKα LIPGLO assay (extruded liposome substrate); format: biochemical
Procedure, shortened: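 Human full-length DGKα, His-tagged and produced in Sf9 cells, assayed at 20 nM (4× stock) on extruded liposomes of PS, 0.25 mM DAG and 2.75 mM PC, preincubated 10 min. Reaction started with 300 μM ATP (stock) and ran 1 h in MOPS pH 7.5/MgCl2/CaCl2/DTT buffer.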

human DGKζ [2] = molecular target: T2, human DGKζ (Homo sapiens (Human), UniProt Q13574); assay: DGKζ LIPGLO assay (extruded liposome substrate); format: biochemical
T2 sequence (Q13574 other isoform, or with tags, fused parts or gaps): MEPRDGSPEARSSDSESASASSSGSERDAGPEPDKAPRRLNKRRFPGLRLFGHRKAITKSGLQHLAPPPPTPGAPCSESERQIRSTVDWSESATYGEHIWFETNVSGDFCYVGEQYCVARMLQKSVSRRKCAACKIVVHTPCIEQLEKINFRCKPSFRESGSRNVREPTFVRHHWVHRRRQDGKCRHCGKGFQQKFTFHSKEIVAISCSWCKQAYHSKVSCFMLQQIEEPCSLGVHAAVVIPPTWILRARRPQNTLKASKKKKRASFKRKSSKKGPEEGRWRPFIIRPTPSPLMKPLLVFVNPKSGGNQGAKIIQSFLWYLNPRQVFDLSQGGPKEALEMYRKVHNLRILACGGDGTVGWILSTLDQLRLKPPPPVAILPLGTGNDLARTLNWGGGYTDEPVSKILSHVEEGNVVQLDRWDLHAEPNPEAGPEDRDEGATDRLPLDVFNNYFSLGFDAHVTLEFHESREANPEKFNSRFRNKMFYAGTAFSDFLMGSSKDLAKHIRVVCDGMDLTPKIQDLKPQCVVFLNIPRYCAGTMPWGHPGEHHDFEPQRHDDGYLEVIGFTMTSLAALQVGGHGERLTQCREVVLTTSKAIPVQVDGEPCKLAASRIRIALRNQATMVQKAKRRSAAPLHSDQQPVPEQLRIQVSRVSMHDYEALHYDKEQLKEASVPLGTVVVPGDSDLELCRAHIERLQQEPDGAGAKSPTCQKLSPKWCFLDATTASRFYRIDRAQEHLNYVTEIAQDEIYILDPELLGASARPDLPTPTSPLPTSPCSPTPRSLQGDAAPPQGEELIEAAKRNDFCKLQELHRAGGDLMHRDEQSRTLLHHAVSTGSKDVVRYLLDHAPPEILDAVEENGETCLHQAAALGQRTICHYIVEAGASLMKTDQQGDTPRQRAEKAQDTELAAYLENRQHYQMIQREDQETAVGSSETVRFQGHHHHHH
Procedure, shortened: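 Recombinant DGKζ (Sf9-expressed, Ni/SEC/SP-purified) preincubated 10 min with extruded 100 nm PC/DAG/PS liposomes in 50 mM MOPS pH 7.5, 100 mM NaCl, 10 mM MgCl2, 1 μM CaCl2, 1 mM DTT. Started with 300 uM ATP solution (stock, pre-addition); 1 hr reaction. ADP-Glo luminescence; IC50 from 11 concentrations.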

human DGKζ [3] = molecular target: T2, human DGKζ; assay: DGKζ assay (detergent/lipid micelle substrate); format: biochemical
Procedure, shortened: (§1)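 Full-length human DGKζ (and DGKα), C-terminal His-tagged, Sf9-expressed, with phosphatidylserine/DAG micelles in 50 mM octyl glucoside; buffer 50 mM MOPS pH 7.5, 100 mM NaCl, 10 mM MgCl2, 1 μM CaCl2, 1 mM DTT.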

[4] = test system: pre-activated CD4 T cells and Raji cells; assay: Raji CD4 T Cell IL2 Assay; format: cell-based
human DGKα [5] = molecular target: T1, human DGKα; assay: biochemical; conditions: detergent/lipid micelle substrate; read-out: DGKα IC50
Procedure, shortened: as §1

[6] = extruded liposome substrate, read-out: DGKζ LIPGLO IC50
[7] = detergent/lipid micelle substrate; read-out: DGKζ IC50

T1 sequence (P23743 other isoform, or with tags, fused parts or gaps): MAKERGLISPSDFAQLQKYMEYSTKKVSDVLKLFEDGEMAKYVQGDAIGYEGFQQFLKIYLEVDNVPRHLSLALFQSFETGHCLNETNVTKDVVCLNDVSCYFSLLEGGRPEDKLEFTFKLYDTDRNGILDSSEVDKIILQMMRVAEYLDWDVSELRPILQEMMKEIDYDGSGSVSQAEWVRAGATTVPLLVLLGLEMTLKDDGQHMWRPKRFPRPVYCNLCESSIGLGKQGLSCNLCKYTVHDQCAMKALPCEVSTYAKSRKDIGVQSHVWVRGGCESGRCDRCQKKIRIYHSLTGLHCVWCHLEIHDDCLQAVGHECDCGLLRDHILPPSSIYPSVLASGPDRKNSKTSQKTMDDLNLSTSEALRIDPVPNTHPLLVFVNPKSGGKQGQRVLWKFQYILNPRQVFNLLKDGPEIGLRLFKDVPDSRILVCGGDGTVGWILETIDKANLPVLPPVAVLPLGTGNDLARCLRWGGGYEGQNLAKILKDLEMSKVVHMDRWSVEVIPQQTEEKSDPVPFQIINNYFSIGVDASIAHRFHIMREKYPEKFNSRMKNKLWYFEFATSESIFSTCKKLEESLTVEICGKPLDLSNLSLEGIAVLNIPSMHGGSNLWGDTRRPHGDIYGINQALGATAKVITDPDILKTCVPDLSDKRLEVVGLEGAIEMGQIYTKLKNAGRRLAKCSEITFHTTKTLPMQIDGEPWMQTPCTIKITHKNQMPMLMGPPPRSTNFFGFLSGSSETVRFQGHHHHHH

**Q.** For `C#CCn1c(=O)c([N+](=O)[O-])c(N2CCN(C(c3ccc(F)cc3)c3ccc(F)cc3OC)CC2)c2nc(C#N)ccc21` (single isomer, unassigned) [Example 128, 8-(4-((4-fluoro-2-methoxyphenyl)(4-fluorophenyl)methyl)piperazin-1-yl)-7-nitro-6-oxo-5-(prop-2-yn-1-yl)-5,6-dihydro-1,5-naphthyridine-2-carbonitrile], which IC50 (human DGKα [1]) is on record?
**A.** 18000 nM

**Q.** And the IC50 (human DGKζ [2]; [6])?
**A.** 48 nM

**Q.** And the IC50 (human DGKζ [3]; [7])?
**A.** 1500 nM

**Q.** What about the IC50 [4] of the same compound?
**A.** 100 nM

**Q.** And the IC50 (human DGKα [5])?
**A.** 21000 nM

**Q.** Which results are given for `C#CCn1c(=O)c([N+](=O)[O-])c(N2CCN(C(CC)c3ccc(F)cc3)CC2)c2nc(C#N)ccc21` (single isomer, unassigned) [Example 140, 8-{4-[1-(4-fluorophenyl)propyl]piperazin-1-yl}-7-nitro-6-oxo-5-(prop-2-yn-1-yl)-5,6-dihydro-1,5-naphthyridine-2-carbonitrile]?
**A.** IC50 (human DGKα [1]): 2700 nM; IC50 (human DGKζ [2]; [6]): 130 nM; IC50 (human DGKζ [3]; [7]): 600 nM; IC50 ([4]; Homo sapiens, Raji): 6 nM; IC50 (human DGKα [5]): 640 nM

**Q.** With `CC(c1ccc(F)cc1)N1CCN(c2c(C#N)c(=O)n(CC3CC3)c3ccc(Br)nc23)CC1` (single isomer, unassigned) [Example 164, 6-bromo-1-(cyclopropylmethyl)-4-(4-(1-(4-fluorophenyl)ethyl)piperazin-1-yl)-2-oxo-1,2-dihydro-1,5-naphthyridine-3-carbonitrile] as the compound, how does the IC50 (human DGKα [1]) read?
**A.** 81000 nM

**Q.** What about the IC50 (human DGKζ [2]; DGKζ LIPGLO IC50, extruded liposome substrate) of the same compound?
**A.** 59000 nM

**Q.** What about the IC50 (human DGKζ [3]; read-out: DGKζ IC50; detergent/lipid micelle substrate) of the same compound?
**A.** > 240000 nM

**Q.** And the IC50 [4]?
**A.** 2600 nM

**Q.** And the IC50 (human DGKα [5])?
**A.** > 240000 nM

**Q.** `CC(C)C(c1ccc(F)cc1)N1CCN(c2c(C#N)c(=O)n(C)c3ccc(Cl)nc23)CC1` (single isomer, unassigned) [Example 316, 6-chloro-4-{4-[1-(4-fluorophenyl)-2-methylpropyl]piperazin-1-yl}-methyl-2-oxo-1,2-dihydro-1,5-naphthyridine-3-carbonitrile] was tested. Which IC50 (human DGKα [1]) did it give?
**A.** 250 nM

**Q.** And the IC50 (human DGKζ [2]; [6])?
**A.** > 240000 nM

**Q.** What about the IC50 (human DGKζ [3]; [7]) of the same compound?
**A.** > 240000 nM

**Q.** And the IC50 [4]?
**A.** 410 nM

**Q.** And the IC50 (human DGKα [5])?
**A.** 400 nM

**Q.** With `Cn1c(=O)c([N+](=O)[O-])c(N2CCN(C(c3ccc(F)cc3)c3ccc(F)cc3)CC2)c2ncccc21` [Example 3, 4-(4-(bis(4-fluorophenyl)methyl)piperazin-1-yl)-1-methyl-3-nitro-1,5-naphthyridin-2(1H)-one] as the compound, how does the IC50 (human DGKα [1]) read?
**A.** 3800 nM

**Q.** And the IC50 (human DGKζ [2]; [6])?
**A.** 2300 nM

**Q.** What about the IC50 (human DGKζ [3]; [7]) of the same compound?
**A.** > 240000 nM

**Q.** And the IC50 ([4]; Homo sapiens, Raji)?
**A.** 310 nM

**Q.** And the IC50 (human DGKα [5])?
**A.** 2100 nM

**Q.** With `Cn1c(=O)c(C#N)c(N2CCN(C(c3ccc(F)cc3)C3CC3)CC2)c2nc(Br)ccc21` (stereo not drawn) [Example 35, 6-bromo-4-{4-[cyclopropyl(4-fluorophenyl)methyl]piperazin-1-yl}-1-methyl-2-oxo-1,2-dihydro-1,5-naphthyridine-3-carbonitrile] as the compound, how does the IC50 (human DGKα [1]) read?
**A.** 990 nM

**Q.** And the IC50 (human DGKζ [2]; [6])?
**A.** 81000 nM

**Q.** And the IC50 (human DGKζ [3]; [7])?
**A.** > 240000 nM

**Q.** What about the IC50 ([4]; Homo sapiens, Raji) of the same compound?
**A.** 210 nM

**Q.** What about the IC50 (human DGKα [5]) of the same compound?
**A.** 140 nM

**Q.** With `CCn1ccc2c(CN3CCN(c4c([N+](=O)[O-])c(=O)n(C)c5ccc(Br)nc45)CC3)cccc21` [Example 54, 6-bromo-4-(4-((1-ethyl-H-indol-4-yl)methyl)piperazin-1-yl)-1-methyl-3-nitro-1,5-naphthyridin-2(1H)-one] as the compound, how does the IC50 (human DGKα [1]) read?
**A.** 3100 nM

**Q.** What about the IC50 (human DGKζ [2]; [6]) of the same compound?
**A.** 1300 nM

**Q.** And the IC50 (human DGKζ [3]; [7])?
**A.** 7300 nM

**Q.** And the IC50 ([4]; Homo sapiens, Raji)?
**A.** 63 nM

**Q.** And the IC50 (human DGKα [5])?
**A.** 820 nM

**Q.** Which IC50 (human DGKα [1]) does the source give for `C#CCn1c(=O)c(C#N)c(N2CCN(Cc3ccccc3O)CC2)c2nc(Br)ccc21` [Example 65, 6-bromo-4-(4-(2-hydroxybenzyl)piperazin-1-yl)-2-oxo-1-(prop-2-yn-1-yl)-1,2-dihydro-1,5-naphthyridine-3-carbonitrile] here?
**A.** 510 nM

**Q.** What about the IC50 (human DGKζ [2]; [6]) of the same compound?
**A.** 3700 nM

**Q.** What about the IC50 (human DGKζ [3]; [7]) of the same compound?
**A.** 20000 nM

**Q.** And the IC50 ([4]; Homo sapiens, Raji)?
**A.** 5.5 nM

**Q.** And the IC50 (human DGKα [5])?
**A.** 290 nM

**Q.** `C#CCn1c(=O)c(C#N)c(N2CCN(Cc3ccc(C)cc3O)CC2)c2nc(Br)ccc21` [Example 66, 6-bromo-4-(4-(2-hydroxy-4-methylbenzyl)piperazin-1-yl)-2-oxo-1-(prop-2-yn-1-yl)-1,2-dihydro-1,5-naphthyridine-3-carbonitrile] was tested. Which IC50 (human DGKα [1]) did it give?
**A.** 230 nM

**Q.** What about the IC50 (human DGKζ [2]; [6]) of the same compound?
**A.** 1700 nM

**Q.** What about the IC50 (human DGKζ [3]; [7]) of the same compound?
**A.** 13000 nM

**Q.** What about the IC50 ([4]; Homo sapiens, Raji) of the same compound?
**A.** 48 nM

**Q.** What about the IC50 (human DGKα [5]) of the same compound?
**A.** 84 nM
